# Assay results as given in patent US10829538B2, “Identification of immunogenic MHC class II peptides for immune-based therapy” (THE TRUSTEES OF THE UNIVERSITY OF PENNSYLVANIA, priority 2015, dated 2020).
# Key:
# [1] = test system: HER3 ECD-sensitized CD4+ Th1 cells; assay: Sequential screening of HER3 ECD peptide library: HER3 ECD-sensitized CD4+ Th1 restimulated against peptide-pulsed iDCs, IFN-γ ELISA; type: cell-based, human; conditions: for reactivity of CD4+ T cells across donors (IFN-γ secretion): 5-6 subjects with known anti-HER3 ECD reactivity
# [2] = test system: HLA-DR, DP, DQ; assay: MHC class II promiscuity of CD4+ Th1 responses (HLA-DR, DP, DQ typing of donors); type: cell-based, human; conditions: DQ subtypes
# [3] = Donor # 15107-26, previously sensitized to HER3 ECD
# [4] = Donor # 15107-31, previously sensitized to HER3 ECD
# [5] = Donor # 15107-38, previously sensitized to HER3 ECD
# [6] = Donor # 26113-03, previously sensitized to HER3 ECD
# [7] = Donor # 15107-24, previously sensitized to HER3 ECD
sequence,measurement,setting,value
"AGRIYISANRQLCYH [HER3451-465, HER3 ECD MHC class II immunogenic peptide, positions 451-465]",reactivity of CD4+ T cells across donors (IFN-γ secretion),[1],react across most donors
same,reactivity of CD4+ T cells across donors (IFN-γ secretion),[1]; listed as HER3(451-465),reproducibly identified
same,immunogenic CD4+ HER3 ECD peptide identified,[1]; [3],✓
same,immunogenic CD4+ HER3 ECD peptide identified,[1]; [4],✓
same,immunogenic CD4+ HER3 ECD peptide identified,[1]; [5],✓
same,immunogenic CD4+ HER3 ECD peptide identified,[1]; [6],✓
same,MHC class II promiscuity,[2],"promiscuous across HLA-DR, DP, and DQ subtypes"
"CEVVMGNLEIVLTGH [HER356-70, HER3 ECD MHC class II immunogenic peptide, positions 56-70]",reactivity of CD4+ T cells across donors (IFN-γ secretion),[1],react across most donors
same,reactivity of CD4+ T cells across donors (IFN-γ secretion),[1]; listed as HER3(56-70),reproducibly identified
same,immunogenic CD4+ HER3 ECD peptide identified,[1]; [7],✓
same,immunogenic CD4+ HER3 ECD peptide identified,[1]; [3],✓
same,immunogenic CD4+ HER3 ECD peptide identified,[1]; [5],✓
same,immunogenic CD4+ HER3 ECD peptide identified,[1]; [6],✓
same,MHC class II promiscuity,[2],"promiscuous across HLA-DR, DP, and DQ subtypes"
"SWPPHMHNFSVFSNL [HER3401-415, HER3 ECD MHC class II immunogenic peptide, positions 401-415]",reactivity of CD4+ T cells across donors (IFN-γ secretion),[1],react across most donors
same,reactivity of CD4+ T cells across donors (IFN-γ secretion),[1]; listed as HER3(401-415),reproducibly identified
same,immunogenic CD4+ HER3 ECD peptide identified,[1]; [7],✓
same,immunogenic CD4+ HER3 ECD peptide identified,[1]; [3],✓
same,immunogenic CD4+ HER3 ECD peptide identified,[1]; [6],✓
same,MHC class II promiscuity,[2],"promiscuous across HLA-DR, DP, and DQ subtypes"
"TTIGGRSLYNRGFSL [HER3416-430, HER3 ECD MHC class II immunogenic peptide, positions 416-430]",reactivity of CD4+ T cells across donors (IFN-γ secretion),[1],react across most donors
same,reactivity of CD4+ T cells across donors (IFN-γ secretion),[1]; listed as HER3(416-430),reproducibly identified
same,immunogenic CD4+ HER3 ECD peptide identified,[1]; [7],✓
same,immunogenic CD4+ HER3 ECD peptide identified,[1]; [3],✓
same,immunogenic CD4+ HER3 ECD peptide identified,[1]; [4],✓
same,immunogenic CD4+ HER3 ECD peptide identified,[1]; [6],✓
same,MHC class II promiscuity,[2],"promiscuous across HLA-DR, DP, and DQ subtypes"
